Results from ChEMBL document CHEMBL3885861, “Open TG-GATES”.

Species: Rattus norvegicus
Assay: Open TG-GATES - Regimen: Daily Repeat
Assay type: toxicity, organism-based, Sprague-Dawley
Design: regimen Daily Repeat, gender Male, age 6 weeks
Conditions: in vivo, po, route gavage; for APTT / Bas / Eos / Fbg / Hb / Ht / Lym / MCH / MCHC / MCV / Mono / Neu / PT / Plat / RBC / Ret / WBC: tissue Blood; for LIVER: tissue Liver; for A/G / ALP / ALT / AST / BUN / CRE / Ca / Cl / DBIL / GLC / IP / K / LDH / Na / PL / RALB / TBIL / TC / TG / TP / gamma-GTP: tissue Plasma
[1] = 0 mg/kg, 72 h, dose level Control, time 3 day
[2] = 0 mg/kg, […], dose level Control, time 7 day
[3] = 0 mg/kg, […], dose level Control, time 14 day
[4] = 0 mg/kg, […], dose level Control, time 28 day
[5] = 6 mg/kg, 72 h, dose level Low, time 3 day
[6] = 6 mg/kg, […], dose level Low, time 7 day
[7] = 6 mg/kg, […], dose level Low, time 14 day
[8] = 6 mg/kg, […], dose level Low, time 28 day

O=[N+]([O-])c1ccc(O)c([N+](=O)[O-])c1 [2,4-DINITROPHENOL]
TERMINAL_BW [1]: 246.4 g
APTT [1]: 16.7 s
Bas [1]: 0%
Eos [1]: 1.2%
Fbg [1]: 265 mg/dL
Hb [1]: 12.8 g/dL
Ht [1]: 38.3%
Lym [1]: 74.4%
MCH [1]: 21.4 pg
MCHC [1]: 33.5%
MCV [1]: 64 fL
Mono [1]: 4.8%
Neu [1]: 19.8%
PT [1]: 11.6 s
Plat [1]: 131.4 x10_4/uL
RBC [1]: 599.4 x10_4/ul
Ret [1]: 6%
WBC [1]: 119.4 x10_2/uL
LIVER [1]: 11.9 g
A/G [1]: 2.3
ALP [1]: 1481 IU/L
ALT [1]: 33.8 IU/L
AST [1]: 62.6 IU/L
BUN [1]: 15.6 mg/dL
CRE [1]: 0.4 mg/dL
Ca [1]: 11.6 mg/dL
Cl [1]: 103.2 meq/L
DBIL [1]: 0.01 mg/dL
GLC [1]: 183 mg/dL
IP [1]: 7.4 mg/dL
K [1]: 4.7 meq/L
LDH [1]: 91.6 IU/L
Na [1]: 138.2 meq/L
PL [1]: 156.2 mg/dL
RALB [1]: 3.9 g/dL
TBIL [1]: 0.034 mg/dL
TC [1]: 84.2 mg/dL
TG [1]: 137 mg/dL
TP [1]: 5.6 g/dL
gamma-GTP [1]: 0.8 IU/L
TERMINAL_BW [2]: 271.5 g
TERMINAL_BW [3]: 341.5 g
TERMINAL_BW [4]: 452.7 g
APTT [2]: 16 s
Bas [2]: 0%
Eos [2]: 1%
Fbg [2]: 247 mg/dL
Hb [2]: 13.5 g/dL
Ht [2]: 39.8%
Lym [2]: 77.2%
MCH [2]: 21.5 pg
MCHC [2]: 33.9%
MCV [2]: 63.4 fL
Mono [2]: 5%
Neu [2]: 16.8%
PT [2]: 11.6 s
Plat [2]: 133.8 x10_4/uL
RBC [2]: 629 x10_4/ul
Ret [2]: 5%
WBC [2]: 101.8 x10_2/uL
APTT [3]: 16.5 s
Bas [3]: 0%
Eos [3]: 1%
Fbg [3]: 243.2 mg/dL
Hb [3]: 13.8 g/dL
Ht [3]: 40.7%
Lym [3]: 73%
MCH [3]: 20.9 pg
MCHC [3]: 33.9%
MCV [3]: 61.7 fL
Mono [3]: 5%
Neu [3]: 21%
PT [3]: 11.6 s
Plat [3]: 130 x10_4/uL
RBC [3]: 660.8 x10_4/ul
Ret [3]: 3.9%
WBC [3]: 124.2 x10_2/uL
APTT [4]: 15.9 s
Bas [4]: 0%
Eos [4]: 1%
Fbg [4]: 278.4 mg/dL
Hb [4]: 14.8 g/dL
Ht [4]: 43.5%
Lym [4]: 78.4%
MCH [4]: 19.6 pg
MCHC [4]: 34%
MCV [4]: 57.7 fL
Mono [4]: 5.6%
Neu [4]: 15.4%
PT [4]: 11.6 s
Plat [4]: 117.2 x10_4/uL
RBC [4]: 754.6 x10_4/ul
Ret [4]: 2.8%
WBC [4]: 107.4 x10_2/uL
LIVER [2]: 13.1 g
LIVER [3]: 16.5 g
LIVER [4]: 19.9 g
A/G [2]: 2.2
ALP [2]: 1556.6 IU/L
ALT [2]: 38.6 IU/L
AST [2]: 68.8 IU/L
BUN [2]: 18.2 mg/dL
CRE [2]: 0.4 mg/dL
Ca [2]: 11.4 mg/dL
Cl [2]: 105.8 meq/L
DBIL [2]: 0.014 mg/dL
GLC [2]: 182.2 mg/dL
IP [2]: 7.7 mg/dL
K [2]: 4.7 meq/L
LDH [2]: 107 IU/L
Na [2]: 141.2 meq/L
PL [2]: 154.8 mg/dL
RALB [2]: 3.8 g/dL
TBIL [2]: 0.028 mg/dL
TC [2]: 80 mg/dL
TG [2]: 162.4 mg/dL
TP [2]: 5.5 g/dL
gamma-GTP [2]: 0.8 IU/L
A/G [3]: 2
ALP [3]: 1126.4 IU/L
ALT [3]: 33.4 IU/L
AST [3]: 59.6 IU/L
BUN [3]: 18.4 mg/dL
CRE [3]: 0.3 mg/dL
Ca [3]: 11.4 mg/dL
Cl [3]: 104.2 meq/L
DBIL [3]: 0.012 mg/dL
GLC [3]: 186 mg/dL
IP [3]: 7.4 mg/dL
K [3]: 4.6 meq/L
LDH [3]: 101.6 IU/L
Na [3]: 136.8 meq/L
PL [3]: 151.4 mg/dL
RALB [3]: 4 g/dL
TBIL [3]: 0.024 mg/dL
TC [3]: 72.8 mg/dL
TG [3]: 182 mg/dL
TP [3]: 6 g/dL
gamma-GTP [3]: 0 IU/L
A/G [4]: 1.8
ALP [4]: 930.8 IU/L
ALT [4]: 30.8 IU/L
AST [4]: 58.6 IU/L
BUN [4]: 20.2 mg/dL
CRE [4]: 0.5 mg/dL
Ca [4]: 11.2 mg/dL
Cl [4]: 103.4 meq/L
DBIL [4]: 0.016 mg/dL
GLC [4]: 195.4 mg/dL
IP [4]: 7.2 mg/dL
K [4]: 4.4 meq/L
LDH [4]: 108.8 IU/L
Na [4]: 140.6 meq/L
PL [4]: 161.6 mg/dL
RALB [4]: 4 g/dL
TBIL [4]: 0.036 mg/dL
TC [4]: 79.8 mg/dL
TG [4]: 228.8 mg/dL
TP [4]: 6.2 g/dL
gamma-GTP [4]: 0.4 IU/L
TERMINAL_BW [5]: 247 g
APTT [5]: 16.5 s
Bas [5]: 0%
Eos [5]: 1%
Fbg [5]: 280.8 mg/dL
Hb [5]: 13.5 g/dL
Ht [5]: 39.7%
Lym [5]: 70%
MCH [5]: 21.5 pg
MCHC [5]: 34%
MCV [5]: 63.2 fL
Mono [5]: 9.4%
Neu [5]: 19.4%
PT [5]: 11.4 s
Plat [5]: 143.8 x10_4/uL
RBC [5]: 628 x10_4/ul
Ret [5]: 6.1%
WBC [5]: 100 x10_2/uL
LIVER [5]: 12.5 g
A/G [5]: 2.3
ALP [5]: 1318.2 IU/L
ALT [5]: 36 IU/L
AST [5]: 61.6 IU/L
BUN [5]: 18.8 mg/dL
CRE [5]: 0.4 mg/dL
Ca [5]: 11.6 mg/dL
Cl [5]: 104.4 meq/L
DBIL [5]: 0.012 mg/dL
GLC [5]: 190 mg/dL
IP [5]: 7.9 mg/dL
K [5]: 4.9 meq/L
LDH [5]: 110.2 IU/L
Na [5]: 137.6 meq/L
PL [5]: 165.2 mg/dL
RALB [5]: 4 g/dL
TBIL [5]: 0.032 mg/dL
TC [5]: 89.2 mg/dL
TG [5]: 137.2 mg/dL
TP [5]: 5.7 g/dL
gamma-GTP [5]: 0.6 IU/L
TERMINAL_BW [6]: 282.7 g
TERMINAL_BW [7]: 318.6 g
TERMINAL_BW [8]: 445.6 g
APTT [6]: 16.4 s
Bas [6]: 0%
Eos [6]: 0.8%
Fbg [6]: 264.6 mg/dL
Hb [6]: 13.1 g/dL
Ht [6]: 38.6%
Lym [6]: 81.6%
MCH [6]: 21.3 pg
MCHC [6]: 33.9%
MCV [6]: 62.6 fL
Mono [6]: 4.2%
Neu [6]: 13.6%
PT [6]: 11.5 s
Plat [6]: 137.2 x10_4/uL
RBC [6]: 617.8 x10_4/ul
Ret [6]: 5.3%
WBC [6]: 117 x10_2/uL
APTT [7]: 17.1 s
Bas [7]: 0%
Eos [7]: 1%
Fbg [7]: 255.8 mg/dL
Hb [7]: 14.1 g/dL
Ht [7]: 41.5%
Lym [7]: 76.4%
MCH [7]: 20.9 pg
MCHC [7]: 33.9%
MCV [7]: 61.7 fL
Mono [7]: 6.4%
Neu [7]: 16.4%
PT [7]: 11.8 s
Plat [7]: 119.2 x10_4/uL
RBC [7]: 671.8 x10_4/ul
Ret [7]: 3.9%
WBC [7]: 134.2 x10_2/uL
APTT [8]: 16.5 s
Bas [8]: 0%
Eos [8]: 1.2%
Fbg [8]: 282.4 mg/dL
Hb [8]: 14.9 g/dL
Ht [8]: 43.9%
Lym [8]: 76.6%
MCH [8]: 19.6 pg
MCHC [8]: 33.9%
MCV [8]: 57.8 fL
Mono [8]: 5.6%
Neu [8]: 16.8%
PT [8]: 11.8 s
Plat [8]: 121.2 x10_4/uL
RBC [8]: 759.4 x10_4/ul
Ret [8]: 2.2%
WBC [8]: 117.4 x10_2/uL
LIVER [6]: 13.1 g
LIVER [7]: 13.9 g
LIVER [8]: 20 g
A/G [6]: 2.3
ALP [6]: 1599.8 IU/L
ALT [6]: 36.8 IU/L
AST [6]: 66 IU/L
BUN [6]: 17.6 mg/dL
CRE [6]: 0.3 mg/dL
Ca [6]: 11.4 mg/dL
Cl [6]: 104.8 meq/L
DBIL [6]: 0.012 mg/dL
GLC [6]: 188.2 mg/dL
IP [6]: 7.4 mg/dL
K [6]: 4.5 meq/L
LDH [6]: 115.4 IU/L
Na [6]: 140.8 meq/L
PL [6]: 138.6 mg/dL
RALB [6]: 3.9 g/dL
TBIL [6]: 0.03 mg/dL
TC [6]: 74.2 mg/dL
TG [6]: 121.8 mg/dL
TP [6]: 5.6 g/dL
gamma-GTP [6]: 1 IU/L
A/G [7]: 2.1
ALP [7]: 1262 IU/L
ALT [7]: 34.8 IU/L
AST [7]: 66.2 IU/L
BUN [7]: 18.8 mg/dL
CRE [7]: 0.4 mg/dL
Ca [7]: 11.1 mg/dL
Cl [7]: 106.2 meq/L
DBIL [7]: 0.01 mg/dL
GLC [7]: 184.6 mg/dL
IP [7]: 6.8 mg/dL
K [7]: 4.7 meq/L
LDH [7]: 114.6 IU/L
Na [7]: 136.8 meq/L
PL [7]: 129.4 mg/dL
RALB [7]: 3.8 g/dL
TBIL [7]: 0.016 mg/dL
TC [7]: 62.4 mg/dL
TG [7]: 125.8 mg/dL
TP [7]: 5.7 g/dL
gamma-GTP [7]: 0 IU/L
A/G [8]: 1.9
ALP [8]: 1091.6 IU/L
ALT [8]: 33 IU/L
AST [8]: 63.6 IU/L
BUN [8]: 20.2 mg/dL
CRE [8]: 0.5 mg/dL
Ca [8]: 11 mg/dL
Cl [8]: 105.2 meq/L
DBIL [8]: 0.01 mg/dL
GLC [8]: 203 mg/dL
IP [8]: 7.3 mg/dL
K [8]: 4.3 meq/L
LDH [8]: 144.4 IU/L
Na [8]: 140.6 meq/L
PL [8]: 150 mg/dL
RALB [8]: 3.9 g/dL
TBIL [8]: 0.03 mg/dL
TC [8]: 72.6 mg/dL
TG [8]: 199.8 mg/dL
TP [8]: 6 g/dL
gamma-GTP [8]: 0.8 IU/L
